Where two headings read alike, the source gives them in different places.
Legend:
[1] = tested on: phenylbenzoquinone-induced writhing; experiment: Suppression of phenylbenzoquinone irritant-induced writhing (PBQ); type: in vivo, Carworth Farms CF-1 mice; settings: mice; for ED50: Mus musculus, read-out: ANALGESIC ACTIVITY ED50, PBQ
Description: Test Using Chemical Nociceptive Stimuli
Suppression of Phenylbenzoquinone Irritant-Induced Writhing
Groups of 5 Carworth Farms CF-1 mice are pretreated subcutaneously or orally with saline, morphine, codeine or the test compound. Twenty minutes (if treated subcutaneously) or fifty minutes (if treated orally) later, each group is treated with intraperitoneal injection of phenylbenzoquinone, an irritant known to produce abdominal contractions. The mice are observed for 5 minutes for the presence or absence of writhing starting 5 minutes after the injection of the irritant. MPE50 's of the drug pretreatments in blocking writhing are ascertained.
(§1) Results of the above tests are recorded as percent maximum possible effect (% MPE). The % MPE of each group is statistically compared to the % MPE of the standard and the predrug control values. The % MPE is calculated as follows: [formula]
(§2) By means of the above procedures, the analgesic activity of several compounds of this invention and of certain prior art compounds are determined. The data are reported in terms of maximum possible effect.
(§3) PBQ=phenylbenzoquinone-induced writhing; TF=tail flick; HP=hot plate; RTC=rat tail clamp; FJ=flinch jump; and TI=tail immersion assays.

tail flick = experiment: Mouse tail flick analgesic testing (TF); type: in vivo, mice; settings: for ANALGESIC ACTIVITY ED50, TF / ED50: tail flick, mice; for ED50: Mus musculus
Text: (§4) Tests Using Thermal Nociceptive Stimuli
(b) Mouse Tail Flick Analgesic Testing
Tail flick testing in mice is modified after D'Amour and Smith, J. Pharmacol. Exp. Ther., 72, 74-79 (1941), using controlled high intensity heat applied to the tail. Each mouse is placed in a snug-fitting metal cylinder, with the tail protruding through one end. This cylinder is arranged so that the tail lies flat over a concealed heat lamp. At the onset of testing, an aluminum flag over the lamp is drawn back allowing the light beam to pass through the slit and focus onto the end of the tail. A timer is simultaneously activated. The latency of a sudden flick of the tail is ascertained. Untreated mice usually react within 3-4 seconds after exposure to the lamp. The end point for protection is 10 seconds. Each mouse is tested at 0.5 and 2 hours after treatment with morphine and the test compound. Morphine has an MPE50 of 3.2-5.6 mg./kg. (s.c.).
as §1, §2, §3

hot plate = experiment: Mouse hot plate analgesic testing (HP); type: in vivo, mice; settings: for ANALGESIC ACTIVITY ED50, HP / ED50: hot plate, mice; for ED50: Mus musculus
Description: as §4
(a) Mouse Hot Plate Analgesic Testing
The method used is modified after Woolfe and MacDonald, J. Pharmacol. Exp. Ther., 80, 300-307 (1944). A controlled heat stimulus is applied to the feet of mice on a 1/8" thick aluminum plate. A 250 watt reflector infrared heat lamp is placed under the bottom of the aluminum plate. A thermal regulator, connected to thermistors on the plate surface, programs the heat lamp to maintain a constant temperature of 57° C. Each mouse is dropped into a glass cylinder (61/2" diameter) resting on the hot plate, and timing is begun when the animal's feet tough the plate. The mouse is observed at 0.5 and 2 hours after treatment when the test compound for the first "flicking"movements of one or both hind feet, or until 10 seconds elapse without such movements. Morphine has an MPE50 =4-5.6 mg./kg. (s.c.).
as §1, §2, §3

rat tail clamp = experiment: Haffner tail pinch procedure / rat tail clamp (RTC); type: in vivo, male albino rats, Charles River (Sprague-Dawley) CD strain; settings: for ED50: 1 hour, read-out: ANALGESIC ACTIVITY ED50, RTC 1 hour
Description: Tests Using Pressure Nociceptive Stimuli
Effect on the Haffner Tail Pinch Procedure
A modification of the procedure of Haffner, Experimentelle Prufung Schmerzstillender. Mittel Deutch Med. Wschr., 55, 731-732 (1929) is used to ascertain the effects of the test compound on aggressive attacking responses elicited by a stimulus pinching the tail. Male albino rats (50-60 b.) of the Charles River (Sprague-Dawley) CD strain are used. Prior to drug treatment, and again at 0.5, 1, 2 and 3 hours after treatment, a Johns Hopkins 2.5-inch "bulldog" clamp is clamped onto the root of the rat's tail. The endpoint at each trial is clear attacking and biting behavior directed toward the offending stimulus, with the latency for attack recorded in seconds. The clamp is removed in 30 seconds if attacking has not yet occurred, and the latency of response is recorded as 30 seconds. Morphine is active at 17.8 mg./kg. (i.p.).
as §1, §2, §3

flinch jump = experiment: Flinch-jump test (FJ); type: in vivo, male albino rats, Charles River (Sprague-Dawley) CD strain; settings: Rattus norvegicus, rats, 2 hours, read-out: ANALGESIC ACTIVITY ED50, FJ 2 hours
Text: Tests Using Electrical Nociceptive Stimuli
A modification of the flinch-jump procedure of Tenen, Psychopharmacologia, 12, 278-285 (1968) is used for determining pain thresholds. Male albino rats (175-200 g.) of the Charles River (Sprague-Dawley) CD strain are used. Prior to receiving the drug, the feet of each rat are dipped into a 20% glycerol/saline solution. The animals are then placed in a chamber and presented with a series of 1-second shocks to the feet which are delivered in increasing intensity at 30-second intervals. These intensities are 0.26, 0.39, 0.52, 0.78, 1.05, 1.31, 1.58, 1.86, 2.13, 2.42, 2.72 and 3.04 mA. Each animal's behavior is rated for the presence of (a) flinch, (b) squeak and (c) jump or rapid forward movement at shock onset. Single upward series of shock intensities are presented to each rat just prior to, and at 0.5, 2, 4 and 24 hours subsequent to drug treatment.
as §1, §2, §3

tail immersion = experiment: Tail immersion procedure (TI); type: in vivo, male albino mice, Charles River CD-1 strain; settings: Mus musculus, 0.5 h, read-out: ANALGESIC ACTIVITY ED50, TI 1/2 hour
Description: (c) Tail Immersion Procedure
The method is a modification of the receptacle procedure developed by Benbasset, et al., Arch. int. Pharmacodyn., 122, 434 (1959). Male albino mice (19-21 g.) of the Charles River CD-1 strain are weighed and marked for identification. Five animals are normally used in each drug treatment group with each animal serving as its own control. For general screening purposes, new test agents are first administered at a dose of 56 mg./kg. intraperitoneally or subcutaneously, delivered in a volume of 10 ml./kg. Preceding drug treatment and at 0.5 and 2 hours post drug, each animal is placed in the cylinder. Each cylinder is provided with holes to allow for adequate ventilation and is closed by a round nylon plug through which the animal's tail protrudes. The cylinder is held in an upright position and the tail is completely immersed in the constant temperature waterbath (56° C.). The endpoint for each trial is an energetic jerk or twitch of the tail coupled with a motor response. In some cases, the endpoint may be less vigorous post drug. To prevent undue tissue damage, the trial is terminated and the tail removed from the waterbath within 10 seconds. The response latency is recorded in seconds to the nearest 0.5 second. A vehicle control and a standard of known potency are tested concurrently with screening candidates. If the activity of a test agent has not returned to baseline values at the 2-hour testing point, response latencies are determined at 4 and 6 hours. A final measurement is made at 24 hours if activity is still observed at the end of the test day.
as §1, §2, §3

| SMILES | ED50 [1] [mg/kg] | ED50 (tail flick) [mg/kg] | ED50 (hot plate) [mg/kg] | ED50 (rat tail clamp) [mg/kg] | ED50 (flinch jump) [mg/kg] | ED50 (tail immersion; tail immersion, mice, 1/2 hour) [mg/kg] | further results |
| --- | --- | --- | --- | --- | --- | --- | --- |
| CC(CCCc1ccccc1)c1cc(O)c2c(c1)OC(C)C1CCC(O)CC21 (racemic) [CH(CH3)(CH2)3C6 H5^(a), dl-6aα-7,8,9,10,10a-hexahydro-1-hydroxy-6α-methyl-3-(1-methyl-4-phenylbutyl)-6H-dibenzo[b,d]pyran-9β-ol] |  |  |  |  |  |  | ANALGESIC ACTIVITY ED50, PBQ [1]: 0.94 mg/kg; ANALGESIC ACTIVITY ED50, TF (tail flick): 1.6 mg/kg; ANALGESIC ACTIVITY ED50, HP (hot plate): 5.6 mg/kg |
| CCCCCc1cc(O)c2c(c1)OC(C)(C)[C@@H]1CC[C@@H](O)C[C@@H]21 (relative stereo) [C5 H11, reference compound] | 0.68 | 3.2 | ≥ 17.8 | 58 | 8 | 13 |  |
| CC(CCCc1ccncc1)c1cc(O)c2c(c1)OC(C)(C)[C@@H]1CC[C@@H](O)C[C@@H]21 (relative stereo) [CH2 (CH3)(CH2)34-pyridyl, dl-6aβ,7,8,9,10,10aα-hexahydro-1-hydroxy-6,6-dimethyl-3-[1-methyl-4-(4-pyridyl)butyl]-6H-dibenzo[b,d]pyran-9β-ol] | 0.17 |  |  |  |  |  |  |
| CC(CCCCc1ccccc1)c1cc(O)c2c(c1)OC(C)(C)[C@@H]1CC[C@@H](O)C[C@@H]21 (relative stereo) [CH(CH3 (CH2)4C6 H5, dl-6aβ,7,8,9,10,10aα-hexahydro-1-hydroxy-6,6-dimethyl-3-(1-methyl-5-phenylpentyl)-6H-dibenzo[b,d]pyran-9β-ol] | 1.33 | 2.8 | 3.9 | < 3.2 | 0.42 | 3.5 |  |
| CC(CCc1ccccc1)c1cc(O)c2c(c1)OC(C)(C)[C@@H]1CC[C@@H](O)C[C@@H]21 (relative stereo) [CH(CH3)(CH2)2C6 H5, dl-6aβ,7,8,9,10,10aα-hexahydro-1-hydroxy-6,6-dimethyl-3-(1-methyl-3-phenylpropyl)-6H-dibenzo[b,d]pyran-9β-ol] | 5 | > 10 | > 10 |  |  |  |  |
| CC(CCOc1ccccc1)c1cc(O)c2c(c1)OC(C)(C)[C@@H]1CC[C@@H](O)C[C@@H]21 (relative stereo) [CH(CH3)(CH2)2OC6 H5, dl-6aβ,7,8,9,10,10aα-hexahydro-1-hydroxy-6,6-dimethyl-3-(1-methyl-3-phenoxypropyl)-6H-dibenzo[b,d]pyran-9β-ol] | 0.1 to 1 |  |  |  |  |  |  |
| CC(CCCc1ccccc1)c1cc(O)c2c(c1)OC(C)(C)[C@@H]1CC[C@@H](O)C[C@@H]21 (relative stereo) [CH(CH3)(CH2)3C6 H5, dl-6aβ,7,8,9,10,10aα-Hexahydro-1-hydroxy-6,6-dimethyl-3-(1-methyl-4-phenylbutyl)-6H-dibenzo[b,d]pyran-9β-ol] | 0.062 | 0.32 | 0.75 | 1.8 | 0.11 | 0.3 |  |
| CC(CCCOc1ccccc1)c1cc(O)c2c(c1)OC(C)(C)[C@@H]1CC[C@@H](O)C[C@@H]21 (relative stereo) [CH(CH3)(CH2)3OC6 H5, dl-6aβ,7,8,9,10,10aα-hexahydro-1-hydroxy-6,6-dimethyl-3-(1-methyl-4-phenoxybutyl)-6H-dibenzo[b,d]pyran-9β-ol] | 0.39 | 1.2 | ~10 |  |  |  |  |
| CCCCCC(C)C(C)c1cc(O)c2c(c1)OC(C)(C)[C@@H]1CC[C@@H](O)C[C@@H]21 (relative stereo) [CH(CH3)CH(CH3)C5 H11, reference compound] | 0.1 | 0.35 | 1.1 | 0.44 | 0.11 | 0.38 |  |
| CC1(C)Oc2cc(OC3CCCCC3)cc(O)c2[C@@H]2C[C@H](O)CC[C@H]21 (relative stereo) [OC6 H11, dl-6aβ,7,8,9,10,10aα-1-hydroxy-6,6-dimethyl-3-cyclohexyloxy-6H-dibenzo[b,d]pyran-9β-ol] | 5.3 | > 10 | > 10 |  |  |  |  |
| CC(CCc1ccccc1)Oc1cc(O)c2c(c1)OC(C)(C)[C@@H]1CC[C@@H](O)C[C@@H]21 (relative stereo) [OCH(CH3)(CH2)2C6 H5, dl-6aβ,7,8,9,10,10aα-hexahydro-1-hydroxy-6,6-dimethyl-3-(1-methyl-3-phenylpropoxy)-6H-dibenzo[b,d]pyran-9β-ol] | 0.21 | 1.3 | ~3.2 |  |  |  |  |
| CC(CCCc1ccccc1)Oc1cc(O)c2c(c1)OC(C)(C)[C@@H]1CC[C@@H](O)C[C@@H]21 (relative stereo) [OCH(CH3)(CH2)3C6 H5, dl-6aβ,7,8,9,10,10aα-hexahydro-1-hydroxy-6,6-dimethyl-3-(1-methyl-4-phenylbutoxy)-6H-dibenzo[b,d]pyran-9β-ol] | 0.11 | 0.33 | 0.76 | 1.9 | 0.44 | 0.4 |  |
| CN1CC[C@]23c4c5ccc(O)c4O[C@H]2[C@@H](O)C=C[C@H]3[C@H]1C5 [morphine, reference compound] |  |  |  |  |  |  | ANALGESIC ACTIVITY ED50, PBQ [1]: 0.8 mg/kg; MPE50 tail flick (tail flick; s.c.): 3.2 to 5.6 mg/kg; ANALGESIC ACTIVITY ED50, TF (tail flick): 3.8 mg/kg; ANALGESIC ACTIVITY ED50, HP (hot plate): 4.7 mg/kg; MPE50 hot plate (hot plate; s.c., 57° C. plate): 4 to 5.6 mg/kg; ANALGESIC ACTIVITY ED50, RTC (1/2 hr.) (rat tail clamp; 1/2 hr. (morphine only), 30 min): 2.9 mg/kg; ED50 (tail immersion): 4 mg/kg |

— patent US4243674A, “9-Hydroxydibenzo[b,d]pyrans and intermediates therefore” (priority 1978, dated 1981)
